This is an account of results in patent US20240409585A1, “MACROCYCLIC IMMUNOMODULATORS” (priority 2021, published 2024).

Numbered stars: 1 amine (or outer) side, 2 acyl side, 3 side chain; on linkers, the order of the positions; unused ones are H or OH. Bridge positions count the residues as written; N and C are the ends. Square brackets hold non-standard residues; d marks the D form. Peptide text beside a SMILES is read from it. * marks the point of attachment. X33 = O=C([C@H](Cc1ccc(-c2cccc(Cl)c2)cc1)N[*:1])[*:2]; Phe(4-NO2) = N[C@@H](Cc1ccc([N+](=O)[O-])cc1)C(=O)O; Phe(4-COOH) = N[C@@H](Cc1ccc(C(=O)O)cc1)C(=O)O; Bip = N[C@@H](Cc1ccc(-c2ccccc2)cc1)C(=O)O; Phe(3-OMe) = COc1cccc(C[C@H](N)C(=O)O)c1; Phe(3-Me) = Cc1cccc(C[C@H](N)C(=O)O)c1; 4Pal = N[C@@H](Cc1ccncc1)C(=O)O; Cha = N[C@@H](CC1CCCCC1)C(=O)O; Cit = NC(=O)NCCC[C@H](N)C(=O)O; dNMeNle = CCCC[C@@H](NC)C(=O)O; Carboxymethyl = O=C(O)C*; NMeA = CN[C@@H](C)C(=O)O; Orn = NCCC[C@H](N)C(=O)O; Dab = NCC[C@H](N)C(=O)O; Dap = NC[C@H](N)C(=O)O

T1 sequence (Q15116 25-288): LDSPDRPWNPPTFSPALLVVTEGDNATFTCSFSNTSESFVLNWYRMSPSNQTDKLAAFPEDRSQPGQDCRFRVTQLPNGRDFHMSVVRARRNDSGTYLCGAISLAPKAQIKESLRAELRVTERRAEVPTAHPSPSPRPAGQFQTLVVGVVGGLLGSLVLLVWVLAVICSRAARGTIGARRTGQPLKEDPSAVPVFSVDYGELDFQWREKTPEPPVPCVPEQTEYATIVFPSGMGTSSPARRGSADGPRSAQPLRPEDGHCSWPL

One assay has as its target T1, PE-labeled human PD-L1-Ig binding to Jurkat cell line over-expressing human PD-1 (Jurkat-PD-1) (Homo sapiens, UniProt Q15116).
T1 construct: expressed in transfected cells; host or cells: Jurkat
Nature of the assay: Jurkat-PD-1 Cell Binding High-Content Screening Assay (CBA): Method 1. Conditions: Jurkat HPDL1 PD1 IC50 (uM) (Method 1), Jurkat-hPD-1 cells, PE-labeled PD-L1-Ig 20 nM final.
For `CC(C)C[C@@H]1NC(=O)[C@H](CCN)NC(=O)[C@@H](CC(C)C)NC(=O)[C@H](C)N(C)C(=O)[C@H](C(C)C)NC(=O)[C@H](Cc2ccc(-c3ccccc3)cc2)NC(=O)[C@H](C(C)C)NC(=O)[C@H](Cc2c[nH]c3ccccc23)NC(=O)[C@H](CC(=O)O)NC(=O)[C@H](Cc2ccncc2)NC(=O)[C@H](CN)NC(=O)CSC[C@@H](C(=O)N[C@@H](C)C(N)=O)NC(=O)[C@H]([C@@H](C)O)NC(=O)[C@H](C(C)C)NC1=O` [Compound 1542] ({CH2CO}-[Dap][4Pal]DWV[Bip]V[NMeA][dL][Dab]LVTCA-NH2; thioether N-14), the concentration for half-maximal inhibition (IC50) came out at 0.04 µM.

The same assay, now with this note: Jurkat-hPD-1 cells, PE-labeled PD-L1-Ig 20 nM final; read-out: Jurkat HPDL1 PD1 IC50 (uM) (Method 1).
With `CC(C)C[C@@H]1NC(=O)[C@H](CCN)NC(=O)[C@@H](CC(C)C)NC(=O)[C@H](C)N(C)C(=O)[C@H](Cc2c[nH]c3ccccc23)NC(=O)[C@H](Cc2ccc(-c3ccccc3)cc2)NC(=O)[C@H](C(C)C)NC(=O)[C@H](Cc2c[nH]c3ccccc23)NC(=O)[C@H](CC(=O)O)NC(=O)[C@H](Cc2ccc(O)cc2)NC(=O)[C@H](CC(N)=O)NC(=O)CSC[C@@H](C(=O)N[C@@H](C)C(N)=O)NC(=O)[C@H]([C@@H](C)O)NC(=O)[C@H](C(C)C)NC1=O` [Compound 1263] ({CH2CO}-NYDWV[Bip]W[NMeA][dL][Dab]LVTCA-NH2; thioether N-14), the IC50 amounted to 0.89 µM.

For the molecule `CC(C)C[C@@H]1NC(=O)[C@H](CCCNC(=N)N)NC(=O)[C@@H](Cc2ccccc2)NC(=O)[C@H](C)N(C)C(=O)[C@H](CCCNC(=N)N)NC(=O)[C@H](Cc2ccc(-c3ccccc3)cc2)NC(=O)[C@H](C(C)C)NC(=O)[C@H](Cc2c[nH]c3ccccc23)NC(=O)[C@H](CC(=O)O)NC(=O)[C@H](Cc2ccc(O)cc2)NC(=O)[C@H](CC(N)=O)NC(=O)CSC[C@@H](C(=O)NCC(N)=O)NC(=O)[C@H](CO)NC(=O)[C@H](C(C)C)NC1=O` [Compound 1032] ({CH2CO}-NYDWV[Bip]R[NMeA][dF]RLVSCG-NH2; thioether N-14), the IC50 was found to be 0.51 µM. The same measure, in the same setting: as for `CC(C)C[C@@H]1NC(=O)[C@H](Cc2c[nH]c3ccccc23)NC(=O)[C@H](CC(=O)O)NC(=O)[C@H](Cc2ccc(C(=O)O)cc2)NC(=O)[C@H](Cc2ccc(OCC(=O)O)cc2)NC(=O)CSC[C@@H](C(N)=O)NC(=O)[C@H](CO)NC(=O)[C@H](C(C)C)NC(=O)[C@H](CC2CCCCC2)NC(=O)[C@H](CCN)NC(=O)[C@@H](CC(C)C)NC(=O)[C@H](C)N(C)C(=O)[C@H](C(C)C)NC(=O)[C@H](Cc2ccc(-c3ccccc3)cc2)NC1=O` [Compound 1426] ({CH2CO}-Y(Carboxymethyl)[Phe(4-COOH)]DWL[Bip]V[NMeA][dL][Dab][Cha]VSC-NH2; thioether N-14), the figure is 0.01 µM; as for `CC(C)C[C@@H]1NC(=O)[C@H](CCCN)NC(=O)[C@@H](CC(C)C)NC(=O)[C@H](C)N(C)C(=O)[C@H](CCCNC(=N)N)NC(=O)[C@H](Cc2ccc(-c3ccccc3)cc2)NC(=O)[C@H](C(C)C)NC(=O)[C@H](Cc2c[nH]c3ccccc23)NC(=O)[C@H](CC(=O)O)NC(=O)[C@H](Cc2cnc[nH]2)NC(=O)[C@H](CC(N)=O)NC(=O)CSC[C@@H](C(=O)N[C@@H](C)C(N)=O)NC(=O)[C@H]([C@@H](C)O)NC(=O)[C@H](C(C)C)NC1=O` [Compound 1131] ({CH2CO}-NHDWV[Bip]R[NMeA][dL][Orn]LVTCA-NH2; thioether N-14), 0.28 µM; as for `CC(C)C[C@@H]1NC(=O)[C@H](Cc2c[nH]c3ccccc23)NC(=O)[C@H](CC(=O)O)NC(=O)[C@H](Cc2ccncc2)NC(=O)[C@H](Cc2ccc(OCC(=O)O)cc2)NC(=O)CSC[C@@H](C(=O)N[C@H](CC(N)=O)C(N)=O)NC(=O)[C@H]([C@@H](C)O)NC(=O)[C@H](C(C)C)NC(=O)[C@H](CC2CCCCC2)NC(=O)[C@H](CCN)NC(=O)[C@@H](CC(C)C)NC(=O)[C@H](C)N(C)C(=O)[C@H](C(C)C)NC(=O)[C@H](Cc2ccc(-c3ccccc3)cc2)NC1=O` [Compound 1903] ({CH2CO}-Y(Carboxymethyl)[4Pal]DWL[Bip]V[NMeA][dL][Dab][Cha]VTC[dN]-NH2; thioether N-14), 0.04 µM.

Consider `CC(C)C[C@@H]1NC(=O)[C@H](CCN)NC(=O)[C@@H](CC(C)C)NC(=O)[C@H](C)N(C)C(=O)[C@H](CCCNC(=N)N)NC(=O)[C@H](Cc2ccc(-c3cccc(Cl)c3)cc2)NC(=O)[C@H](C(C)C)NC(=O)[C@H](Cc2c[nH]c3ccccc23)NC(=O)[C@H](CC(=O)O)NC(=O)[C@H](Cc2ccc(O)cc2)NC(=O)[C@H](CC(N)=O)NC(=O)CSC[C@@H](C(=O)N[C@@H](C)C(N)=O)NC(=O)[C@H]([C@@H](C)O)NC(=O)[C@H](C(C)C)NC1=O` [Compound 1222] ({CH2CO}-NYDWV[X33]R[NMeA][dL][Dab]LVTCA-NH2; thioether N-14), for which the IC50 stood at 0.12 µM.

For `CC(C)C[C@@H]1NC(=O)[C@H](CCN)NC(=O)[C@@H](CC(C)C)NC(=O)[C@H](C)N(C)C(=O)[C@H](CCCNC(=N)N)NC(=O)[C@H](Cc2ccc(-c3ccccc3)cc2)NC(=O)[C@H](C(C)C)NC(=O)[C@H](Cc2c[nH]c3ccccc23)NC(=O)[C@H](CC(=O)O)NC(=O)[C@H](Cc2ccc(O)cc2)NC(=O)[C@H](Cc2ccc([N+](=O)[O-])cc2)NC(=O)CSC[C@@H](C(=O)N[C@@H](C)C(N)=O)NC(=O)[C@H]([C@@H](C)O)NC(=O)[C@H](C(C)C)NC1=O` [Compound 1187] ({CH2CO}-[Phe(4-NO2)]YDWV[Bip]R[NMeA][dL][Dab]LVTCA-NH2; thioether N-14), the IC50 came out at 0.05 µM. On the same count and under the same terms, as for `CC(C)C[C@@H]1NC(=O)CSC[C@@H](C(=O)NCC(N)=O)NC(=O)[C@H](CO)NC(=O)[C@H](C(C)C)NC(=O)[C@H](CC(C)C)NC(=O)[C@H](CCCNC(=N)N)NC(=O)[C@@H](Cc2ccccc2)NC(=O)[C@H](C)N(C)C(=O)[C@H](CCCNC(=N)N)NC(=O)[C@H](Cc2ccc(-c3ccccc3)cc2)NC(=O)[C@H](C(C)C)NC(=O)[C@H](Cc2c[nH]c3ccccc23)NC(=O)[C@H](CC(=O)O)NC(=O)[C@H](Cc2ccc(O)cc2)NC1=O` [Compound 1024] ({CH2CO}-LYDWV[Bip]R[NMeA][dF]RLVSCG-NH2; thioether N-14), the figure is 0.15 µM. On the same count and under the same terms, as for `CCCC[C@@H]1C(=O)N[C@@H](Cc2ccc(OCC(=O)O)cc2)C(=O)N[C@@H](CC(=O)O)C(=O)N[C@@H](Cc2cccc(C)c2)C(=O)N[C@@H](Cc2ccc(OCC(=O)O)cc2)C(=O)N[C@@H](Cc2ccc(-c3ccccc3)cc2)C(=O)N[C@@H](Cc2ccc(OCC(=O)O)cc2)C(=O)N(C)[C@@H](C)C(=O)N[C@H](CC(C)C)C(=O)N[C@@H](CCN)C(=O)N[C@@H](CC2CCCCC2)C(=O)N[C@@H](C(C)C)C(=O)N[C@@H](CO)C(=O)N[C@H](C(=O)N[C@@H](CCN)C(N)=O)CSCC(=O)N1C` [Compound 1859] ({CH2CO}-[dNMeNle]Y(Carboxymethyl)D[Phe(3-Me)]Y(Carboxymethyl)[Bip]Y(Carboxymethyl)[NMeA][dL][Dab][Cha]VSC[Dab]-NH2; thioether N-14), the figure is 0.05 µM; as for `COc1cccc(C[C@@H]2NC(=O)[C@H](CC(=O)O)NC(=O)[C@H](Cc3ccc(O)cc3)NC(=O)[C@H](Cc3ccccc3)NC(=O)CSC[C@@H](C(=O)NCC(N)=O)NC(=O)[C@H](CO)NC(=O)[C@H](C(C)C)NC(=O)[C@H](CC(C)C)NC(=O)[C@H](CC(N)=O)NC(=O)[C@@H](CC(C)C)NC(=O)[C@H](C)N(C)C(=O)[C@H](C(C)C)NC(=O)[C@H](Cc3ccc(-c4ccccc4)cc3)NC(=O)[C@H](CC(C)C)NC2=O)c1` [Compound 1516] ({CH2CO}-FYD[Phe(3-OMe)]L[Bip]V[NMeA][dL]NLVSCG-NH2; thioether N-14), 0.02 µM. Still for that read-out and setting: then `CC(C)C[C@@H]1NC(=O)[C@H](CCN)NC(=O)[C@@H](CC(C)C)NC(=O)[C@H](C)N(C)C(=O)[C@H](CCCN)NC(=O)[C@H](Cc2ccc(-c3ccccc3)cc2)NC(=O)[C@H](C(C)C)NC(=O)[C@H](Cc2c[nH]c3ccccc23)NC(=O)[C@H](CC(=O)O)NC(=O)[C@H](Cc2ccc(OCC(=O)O)cc2)NC(=O)[C@H](CC(N)=O)NC(=O)CSC[C@@H](C(=O)N[C@@H](C)C(N)=O)NC(=O)[C@H]([C@@H](C)O)NC(=O)[C@H](C(C)C)NC1=O` [Compound 1387] ({CH2CO}-NY(Carboxymethyl)DWV[Bip][Orn][NMeA][dL][Dab]LVTCA-NH2; thioether N-14), with 0.03 µM; and `Cc1cccc(C[C@@H]2NC(=O)[C@H](CC(=O)O)NC(=O)[C@H](Cc3ccc(OCC(=O)O)cc3)NC(=O)[C@H](CN)NC(=O)CSC[C@@H](C(=O)N[C@@H](C)C(N)=O)NC(=O)[C@H]([C@@H](C)O)NC(=O)[C@H](C(C)C)NC(=O)[C@H](CC(C)C)NC(=O)[C@H](CCN)NC(=O)[C@@H](CC(C)C)NC(=O)[C@H](C)N(C)C(=O)[C@H](CCCNC(N)=O)NC(=O)[C@H](Cc3ccc(-c4ccccc4)cc3)NC(=O)[C@H](C(C)C)NC2=O)c1` [Compound 1437] ({CH2CO}-[Dap]Y(Carboxymethyl)D[Phe(3-Me)]V[Bip][Cit][NMeA][dL][Dab]LVTCA-NH2; thioether N-14), with 0.02 µM. For `CC(C)C[C@@H]1NC(=O)[C@H](Cc2c[nH]c3ccccc23)NC(=O)[C@H](CC(=O)O)NC(=O)[C@H](Cc2ccc(O)cc2)NC(=O)[C@H](Cc2ccccc2)NC(=O)CSC[C@@H](C(=O)N[C@@H](C)C(N)=O)NC(=O)[C@H](CO)NC(=O)[C@H](C(C)C)NC(=O)[C@H](CC(C)C)NC(=O)[C@H](CCC(=O)O)NC(=O)[C@@H](C)NC(=O)[C@H](C)N(C)C(=O)[C@H](CCC(=O)O)NC(=O)[C@H](Cc2ccc(-c3ccccc3)cc2)NC1=O` [Compound 1792] ({CH2CO}-FYDWL[Bip]E[NMeA][dA]ELVSCA-NH2; thioether N-14), the 50% inhibitory concentration (IC50) was found to be 0.13 µM. Same read-out and setting: as for `CC(C)C[C@@H]1NC(=O)[C@H](Cc2c[nH]c3ccccc23)NC(=O)[C@H](CC(=O)O)NC(=O)[C@H](Cc2ccc(O)cc2)NC(=O)[C@H](Cc2ccccc2)NC(=O)CSC[C@@H](C(=O)NCC(N)=O)NC(=O)[C@H](CO)NC(=O)[C@H](C(C)C)NC(=O)[C@H](CC(C)C)NC(=O)[C@H](CC(N)=O)NC(=O)[C@H](CO)NC(=O)[C@H](C)N(C)C(=O)[C@H](C(C)C)NC(=O)[C@H](Cc2ccc(-c3ccccc3)cc2)NC1=O` [Compound 1007] ({CH2CO}-FYDWL[Bip]V[NMeA]SNLVSCG-NH2; thioether N-14), the figure is 0.26 µM.
